Measured values published in patent US11464770B2, “Anticancer pharmaceutical composition” (NATIONAL CANCER CENTER, priority 2016, dated 2022).
pIC50: −log10 of the molar value. Where two headings read alike, the source gives them in different places.

Tests used:
[1] = tested on: pancreatic cancer cell lines (e.g. MIA PaCa-2); assay: Cell based assay, cell viability (CellTiter-Glo), pancreatic cancer cell lines; details: Homo sapiens
Method in brief: (§1)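 72-hour continuous compound exposure, 0 to 2 μM final, begun one day after seeding; endpoint is ATP-based luminescent viability.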

brain cancer cell lines = assay: Cell based assay, cell viability (CellTiter-Glo), brain cancer cell lines; details: Homo sapiens
[2] = tested on: lung cancer cell lines (e.g. NCI-H23, NCI-H1229); assay: Cell based assay, cell viability (CellTiter-Glo), lung cancer cell lines; details: Homo sapiens, 72 hours treatment, CellTiter-Glo
Method in brief: as §1

[3] = pancreatic cancer cell line AsPC-1, 72 hours, read-out: IC50, AsPC-1
[4] = pancreatic cancer cell line BxPC-3, 72 hours, read-out: IC50, BxPC-3
[5] = pancreatic cancer cell line CFPAC-1, 72 hours, read-out: IC50, CFPAC-1
[6] = pancreatic cancer cell line Capan-1, 72 hours, read-out: IC50, Capan-1
[7] = pancreatic cancer cell line Capan-2, 72 hours, read-out: IC50, Capan-2
[8] = pancreatic cancer cell line MIA PaCa-2, 72 hours, read-out: IC50, MIA PaCa-2
[9] = pancreatic cancer cell line PANC-1, 72 hours, read-out: IC50, PANC-1
[10] = U138-MG, U-138 MG cell line, read-out: IC50, Brain cancer cell line U-138 MG
[11] = T98G cell line, read-out: IC50, Brain cancer cell line T98G
[12] = U-251 MG cell line, read-out: IC50, Brain cancer cell line U-251 MG
[13] = A549 cells, read-out: IC50, lung cancer cell line A549
[14] = DMS 114 cells, read-out: IC50, lung cancer cell line DMS 114
[15] = NCI-H23 cells, read-out: IC50, lung cancer cell line NCI-H23
[16] = NCI-H460 cells, read-out: IC50, lung cancer cell line NCI-H460
[17] = NCI-H522 cells, read-out: IC50, lung cancer cell line NCI-H522
[18] = NCI-H1299 cells, read-out: IC50, lung cancer cell line NCI-H1299
[19] = NCI-H1437 cells, read-out: IC50, lung cancer cell line NCI-H1437

Row | pIC50 [1, 3] | pIC50 [1, 4] | pIC50 [1, 5] | pIC50 [1, 6] | pIC50 [1, 7] | pIC50 [1, 8] | pIC50 [1, 9] | pIC50 (brain cancer cell lines; [10]) | pIC50 (brain cancer cell lines; [11]) | pIC50 (brain cancer cell lines; [12]) | pIC50 [2, 13] | pIC50 [2, 14] | pIC50 [2, 15] | pIC50 [2, 16] | pIC50 [2, 17] | pIC50 [2, 18] | pIC50 [2, 19] | Structure (SMILES) | pIC50 ([2]; MRC-5 cells, read-out: IC50)
1 | 5.70 | < 5.70 | < 5.00 | < 5.70 | < 5.70 | 6.00 | < 5.70 | 5.93 | < 5.00 | 5.97 | 5.75 | 5.71 | 6.15 | 5.81 | < 5.70 | 5.92 | < 5.00 | CC(=O)c1c([S+]([O-])Cc2ccc(C(F)(F)F)o2)[nH]c2c(Br)ccc(Cl)c2c1=O (stereo not drawn) [Compound 72, 3-acetyl-8-bromo-5-chloro-2-(((5-(trifluoromethyl)furan-2-yl)methyl)sulfinyl)quinolin-4(1H)-one] | 6.14
2 | < 5.70 | < 5.70 | < 5.00 | < 5.70 | < 5.70 | 5.78 | < 5.70 | < 5.70 | < 5.00 | < 5.70 | < 5.70 | < 5.70 | 5.82 | < 5.70 | < 5.70 | < 5.70 | < 5.00 | CC(=O)c1c([S+]([O-])Cc2ccc(C#N)cc2)[nH]c2c(Br)ccc(Cl)c2c1=O (stereo not drawn) [Compound 73, 4-(((3-acetyl-8-bromo-5-chloro-4-oxo-1,4-dihydroquinolin-2-yl)sulfinyl)methyl)benzonitrile] | < 5.70
3 | < 5.70 | < 5.70 | < 5.00 | < 5.70 | < 5.70 | 5.93 | < 5.70 | 5.84 | < 5.00 | < 5.70 | < 5.70 | < 5.70 | 5.97 | < 5.70 | < 5.70 | 5.85 | < 5.00 | CC(=O)c1c([S+]([O-])Cc2c(F)cccc2Cl)[nH]c2c(Br)ccc(Cl)c2c1=O (stereo not drawn) [Compound 74, 3-acetyl-8-bromo-5-chloro-2-((2-chloro-6-fluorobenzyl)sulfinyl)quinolin-4(1H)-one] | < 5.70
4 | < 5.70 | < 5.70 | < 5.00 | < 5.70 | < 5.70 | 5.88 | < 5.70 | 5.86 | < 5.00 | 5.96 | 5.77 | < 5.70 | 5.92 | 5.76 | < 5.70 | 5.97 | < 5.00 | COc1cc(S(F)(F)(F)(F)F)ccc1C[S+]([O-])c1[nH]c2c(Br)ccc(Cl)c2c(=O)c1C(C)=O (stereo not drawn) [Compound 75, 3-acetyl-8-bromo-5-chloro-2-((2-methoxy-4-(pentafluoro--sulfanyl)benzyl)sulfinyl)quinolin-4(1H)-one] | 5.96
5 | < 5.70 | < 5.70 | < 5.00 | < 5.70 | < 5.70 | 5.81 | < 5.70 | < 5.70 | < 5.00 | < 5.70 | < 5.70 | < 5.70 | 5.91 | < 5.70 | < 5.70 | 5.78 | < 5.00 | CC(=O)c1c([S+]([O-])Cc2cc(F)cc(S(F)(F)(F)(F)F)c2)[nH]c2c(Br)ccc(Cl)c2c1=O (stereo not drawn) [Compound 76, 3-acetyl-8-bromo-5-chloro-2-((3-fluoro-5-(pentafluoro--sulfanyl)benzyl)sulfinyl)quinolin-4(1H)-one] | 5.80
6 | < 5.70 | < 5.70 | < 5.00 | < 5.70 | < 5.70 | 5.85 | < 5.70 | < 5.70 | < 5.00 | < 5.70 | < 5.70 | < 5.70 | 5.87 | < 5.70 | < 5.70 | 5.74 | < 5.00 | CC(=O)c1c([S+]([O-])Cc2c(F)c(F)c(F)c(F)c2F)[nH]c2c(Br)ccc(Cl)c2c1=O (stereo not drawn) [Compound 78, 3-acetyl-8-bromo-5-chloro-2-(((perfluorophenyl)methyl)sulfinyl)quinolin-4(1H)-one] | 5.82
7 | < 5.70 | < 5.70 | < 5.00 | < 5.70 | < 5.70 | 5.84 | < 5.70 | < 5.70 | < 5.70 | 5.87 | < 5.70 | < 5.70 | 5.90 | 5.81 | < 5.70 | 5.84 | < 5.00 | CC(=O)c1c([S+]([O-])Cc2ccc(I)cc2)[nH]c2c(Cl)ccc(Cl)c2c1=O (stereo not drawn) [Compound 83, 3-acetyl-5,8-dichloro-2-((4-iodobenzyl)sulfinyl)quinolin-4(1H)-one] | 5.76
8 | 5.74 | < 5.70 | < 5.00 | 5.82 | < 5.70 | 6.04 | < 5.70 | < 5.70 | < 5.00 | < 5.70 | < 5.70 | < 5.70 | 6.07 | 5.83 | 5.87 | 5.98 | < 5.00 | CC(=O)c1c([S+]([O-])Cc2cccnc2)[nH]c2c(Br)ccc(Cl)c2c1=O (stereo not drawn) [Compound 84, 3-acetyl-8-bromo-5-chloro-2-((pyridin-3-ylmethyl)sulfinyl)quinolin-4(1H)-one] | 5.89
9 | 5.89 | < 5.70 | < 5.00 | 5.90 | < 5.70 | 6.19 | < 5.70 | 5.89 | < 5.00 | 6.13 | 5.92 | < 5.70 | 6.15 | 5.83 | 5.96 | 5.91 | > 5.70 | Cc1cc(C[S+]([O-])c2[nH]c3c(Cl)ccc(Cl)c3c(=O)c2C(=O)C(C)C)no1 (stereo not drawn) [Compound 86, 5,8-dichloro-3-isobutyryl-2-(((5-methylisoxazol-3-yl)methyl)sulfinyl)quinolin-4(1H)-one] | 5.95
10 | < 5.70 | < 5.70 | < 5.00 | < 5.70 | < 5.70 | 5.85 | < 5.70 | < 5.70 | < 5.00 | < 5.70 | < 5.70 | < 5.70 | 5.83 | < 5.70 | < 5.70 | < 5.70 | < 5.00 | COC(=O)c1ccc(C[S+]([O-])c2[nH]c3c(Cl)ccc(Cl)c3c(=O)c2C(C)=O)o1 (stereo not drawn) [Compound 89, methyl 5-(((3-acetyl-5,8-dichloro-4-oxo-1,4-dihydroquinolin-2-yl)sulfinyl)methyl)furan-2-carboxylate] | < 5.70
11 | 5.97 | < 5.70 | < 5.00 | 5.90 | < 5.70 | 6.23 | < 5.70 | 6.00 | < 5.00 | 6.21 | 6.03 | < 5.70 | 6.14 | 5.85 | 6.00 | 5.97 | > 5.70 | Cc1cc(C[S+]([O-])c2[nH]c3c(Br)ccc(Cl)c3c(=O)c2C(=O)C(C)C)no1 (stereo not drawn) [Compound 95, 8-bromo-5-chloro-3-isobutyryl-2-(((5-methylisoxazol-3-yl)methyl)sulfinyl)quinolin-4(1H)-one] | 6.01
